Laboratory results published in patent publication US7645878B2, “Process for preparing quinazoline Rho-kinase inhibitors and intermediates thereof” (Bayer Healthcare LLC, priority 2002, dated 2010).

melting point: 267 to 272 °C
SMILES: c1ccc2c(Nc3ccc4[nH]ncc4c3)nc(-c3ccc4c(c3)CCO4)nc2c1 [Example 9, 2-(2,3-dihydro-1-benzofuran-5-yl)-N-(1H-indazol-5-yl)-4-quinazolinamine]
